Assay results taken from US20240018161A1, “MODULATORS OF CYSTIC FIBROSIS TRANSMEMBRANE CONDUCTANCE REGULATOR” (VERTEX PHARMACEUTICALS INCORPORATED, priority 2020, published 2024).

target: T1, CFTR-mediated short-circuit current in F508del/MF-HBE cells (Homo sapiens, UniProt P13569, DEL508-508); test: HBE2 assay: Ussing chamber assay of CFTR-mediated short-circuit currents; format: cell-based
T1 construct: human bronchial epithelial (HBE) cells derived from CF subjects; endogenous in cells; host or cells: primary human bronchial epithelial cells from CF subjects (F508del/MF-HBE)
Protocol: 1. Ussing Chamber Assay of CFTR-Mediated Short-Circuit Currents
Ussing chamber experiments were performed using human bronchial epithelial (HBE) cells derived from CF subjects heterozygous for F508del and a minimal function CFTR mutation (F508del/MF-HBE) and cultured as previously described (Neuberger T, Burton B, Clark H, Van Goor F Methods Mol Biol 2011:741:39-54). After four days the apical media was removed, and the cells were grown at an air liquid interface for >14 days prior to use.
To isolate the CFTR-mediated short-circuit (ISC) current, F508del/MF-HBE grown on Costar® Snapwell™ cell culture inserts were mounted in an Ussing chamber and the transepithelial ISC was measured under voltage-clamp recording conditions (Vhold=0 mV) at 37° C. The basolateral solution contained (in mM) 145 NaCl, 0.83 K2HPO4, 3.3 KH2PO4, 1.2 MgCl2, 1.2 CaCl2, 10 Glucose, 10 HEPES (pH adjusted to 7.4 with NaOH) and the apical solution contained (in mM) 145 NaGluconate, 1.2 MgCl2, 1.2 CaCl2, 10 glucose, 10 HEPES (pH adjusted to 7.4 with NaOH) and 30 μM amiloride to block the epithelial sodium channel. Forskolin (20 μM) was added to the apical surface to activate CFTR, followed by apical addition of a CFTR inhibitor cocktail consisting of BPO, GlyH-101, and CFTR inhibitor 172 (each at 20 μM final assay concentration) to specifically isolate CFTR currents. The CFTR-mediated ISC (μA/cm^2) for each condition was determined from the peak forskolin response to the steady-state current following inhibition.
2. Identification of Corrector Compounds
The activity of the CFTR corrector compounds on the CFTR-mediated ISC was determined in Ussing chamber studies as described above. The F508del/MF-HBE cell cultures were either incubated with the corrector compounds at a range of concentrations in combination with 44 nM (6R,12R)-17-amino-12-methyl-6,15-bis(trifluoromethyl)-13,19-dioxa-3,4,18-triazatricyclo[12.3.1.12,5]nonadeca-1(18),2,4,14,16-pentaen-6-ol or were incubated with the corrector compounds at a single fixed concentration of 1 and 3 μM in combination with 44 nM (6R,12R)-17-amino-12-methyl-6,15-bis(trifluoromethyl)-13,19-dioxa-3,4,18-triazatricyclo[12.3.1.12,5]nonadeca-1(18),2,4,14,16-pentaen-6-ol for 18-24 hours at 37° C. and in the presence of […]. The concentration of corrector compounds with 44 nM (6R,12R)-17-amino-12-methyl-6,15-bis(trifluoromethyl)-13,19-dioxa-3,4,18-triazatricyclo[12.3.1.12,5]nonadeca-1(18),2,4,14,16-pentaen-6-ol during the 18-24 hours incubations was kept constant throughout the Ussing chamber measurement of the CFTR-mediated ISC to ensure compounds were present throughout the entire experiment.

T1 sequence (P13569 with tags, fused parts or gaps DEL508-508): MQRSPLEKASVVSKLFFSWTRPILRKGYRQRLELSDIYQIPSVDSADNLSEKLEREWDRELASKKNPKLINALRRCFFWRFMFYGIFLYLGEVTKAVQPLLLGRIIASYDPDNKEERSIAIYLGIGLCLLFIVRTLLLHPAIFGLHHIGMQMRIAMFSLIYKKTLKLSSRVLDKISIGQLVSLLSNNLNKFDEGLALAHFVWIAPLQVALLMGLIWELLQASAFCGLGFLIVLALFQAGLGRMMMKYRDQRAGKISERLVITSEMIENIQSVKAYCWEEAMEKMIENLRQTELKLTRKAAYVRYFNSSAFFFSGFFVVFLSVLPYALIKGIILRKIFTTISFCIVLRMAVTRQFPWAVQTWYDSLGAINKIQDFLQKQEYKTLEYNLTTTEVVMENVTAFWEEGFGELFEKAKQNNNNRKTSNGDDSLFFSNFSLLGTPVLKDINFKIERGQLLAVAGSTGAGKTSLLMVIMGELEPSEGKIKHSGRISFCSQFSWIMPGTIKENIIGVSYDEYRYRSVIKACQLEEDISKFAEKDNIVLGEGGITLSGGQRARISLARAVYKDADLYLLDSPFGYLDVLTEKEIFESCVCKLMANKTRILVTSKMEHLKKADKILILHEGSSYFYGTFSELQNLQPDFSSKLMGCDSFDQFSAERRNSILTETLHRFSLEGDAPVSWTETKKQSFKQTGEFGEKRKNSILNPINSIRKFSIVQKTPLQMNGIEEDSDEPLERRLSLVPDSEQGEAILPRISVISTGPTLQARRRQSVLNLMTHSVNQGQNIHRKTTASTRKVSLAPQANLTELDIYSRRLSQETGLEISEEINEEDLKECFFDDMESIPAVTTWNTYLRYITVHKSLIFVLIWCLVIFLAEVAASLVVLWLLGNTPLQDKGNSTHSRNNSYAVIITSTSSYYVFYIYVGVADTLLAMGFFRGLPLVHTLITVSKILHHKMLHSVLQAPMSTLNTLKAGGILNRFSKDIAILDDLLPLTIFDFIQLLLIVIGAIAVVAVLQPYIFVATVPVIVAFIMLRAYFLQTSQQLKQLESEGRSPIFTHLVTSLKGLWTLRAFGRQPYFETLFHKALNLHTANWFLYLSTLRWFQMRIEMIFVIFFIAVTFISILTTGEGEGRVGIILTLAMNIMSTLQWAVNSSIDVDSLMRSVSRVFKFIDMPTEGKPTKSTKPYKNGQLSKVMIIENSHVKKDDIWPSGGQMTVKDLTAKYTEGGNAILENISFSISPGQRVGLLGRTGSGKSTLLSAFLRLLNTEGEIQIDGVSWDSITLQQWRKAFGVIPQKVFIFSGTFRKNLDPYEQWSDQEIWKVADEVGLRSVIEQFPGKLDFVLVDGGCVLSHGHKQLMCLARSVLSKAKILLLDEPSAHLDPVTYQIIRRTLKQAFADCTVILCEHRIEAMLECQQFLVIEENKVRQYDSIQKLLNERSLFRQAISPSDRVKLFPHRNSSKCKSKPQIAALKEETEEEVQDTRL

Structure (SMILES) | HBE2 Activity at 3 μM (%)
Cc1cccc(C)c1-c1cc2nc(n1)NS(=O)(=O)c1cccc(c1)C(=O)N1[C@@H](c3ncc(OC(C)C)cn3)CCC(C)(C)[C@H]1CO2 (single isomer, unassigned) [Compound 386, 13-(2,6-dimethylphenyl)-4-(5-isopropoxypyrimidin-2-yl)-7,7-dimethyl-17,17-dioxo-10-oxa-17λ^6-thia-3,14,16,23-tetrazatetracyclo[16.3.1.111,15.03,8]tricosa-1(21),11,13,15(23),18(22),19-hexaen-2-one] | + (+ is <30+)
Cc1cccc(C)c1-c1cc2nc(n1)NS(=O)(=O)c1cccc(c1)C(=O)N1[C@@H](c3ncc(OC(C)C)cn3)CCC(C)(C)[C@H]1CO2 (single isomer, unassigned) [Compound 387, 13-(2,6-Dimethylphenyl)-4-(5-isopropoxypyrimidin-2-yl)-7,7-dimethyl-17,17-dioxo-10-oxa-17λ^6-thia-3,14,16,23-tetrazatetracyclo[16.3.1.111,15.03,8]tricosa-1(21),11,13,15(23),18(22),19-hexaen-2-one] | +++ (+++ is >60%)
Cc1cccc(C)c1-c1cc2nc(n1)NS(=O)(=O)c1cccc(c1)C(=O)N1[C@@H](c3ncc(OC(C)C)cn3)CCC[C@@H](CC(C)C)[C@H]1CO2 (single isomer, unassigned) [Compound 394, 14-(2,6-Dimethylphenyl)-8-isobutyl-4-(5-isopropoxypyrimidin-2-yl)-18,18-dioxo-11-oxa-18λ^6-thia-3,15,17,24-tetrazatetracyclo[17.3.1.112,16.03,9]tetracosa-1(22),12,14,16(24),19(23),20-hexaen-2-one] | +++ (+++ is >60%)
Cc1cccc(C)c1-c1cc2nc(n1)NS(=O)(=O)c1cccc(c1)C(=O)N1[C@@H](c3ncc(OC(C)C)cn3)CCC[C@@H](CC(C)C)[C@H]1CO2 (single isomer, unassigned) [Compound 395, 14-(2,6-dimethylphenyl)-8-isobutyl-4-(5-isopropoxypyrimidin-2-yl)-18,18-dioxo-11-oxa-18λ^6-thia-3,15,17,24-tetrazatetracyclo[17.3.1.112,16.03,9]tetracosa-1(22),12,14,16(24),19(23),20-hexaen-2-one] | ++ (++ is 30-60%)
Cc1cccc(C)c1-c1cc2nc(n1)NS(=O)(=O)c1cccc(c1)C(=O)N1[C@@H](c3ncc(OC(C)C)cn3)CCC[C@@H](CC(C)C)[C@H]1CO2 (single isomer, unassigned) [Compound 396, 14-(2,6-Dimethylphenyl)-8-isobutyl-4-(5-isopropoxypyrimidin-2-yl)-18,18-dioxo-11-oxa-18λ^6-thia-3,15,17,24-tetrazatetracyclo[17.3.1.112,16.03,9]tetracosa-1(22),12,14,16(24),19(23),20-hexaen-2-one] | + (+ is <30+)
Cc1cccc(C)c1-c1cc2nc(n1)NS(=O)(=O)c1cccc(c1)C(=O)N1[C@@H](c3ncc(OC(C)C)cn3)CCC[C@@H](CC(C)C)[C@H]1CO2 (single isomer, unassigned) [Compound 397, 14-(2,6-dimethylphenyl)-8-isobutyl-4-(5-isopropoxypyrimidin-2-yl)-18,18-dioxo-11-oxa-18λ^6-thia-3,15,17,24-tetrazatetracyclo[17.3.1.112,16.03,9]tetracosa-1(22),12,14,16(24),19(23),20-hexaen-2-one] | +++ (+++ is >60%)
Cc1cccc(C)c1-c1cc2nc(n1)NS(=O)(=O)c1cccc(c1)C(=O)N1[C@@H](c3ncc(OC(C)C)cn3)CCC[C@@H](CC(C)C)[C@H]1CO2 (single isomer, unassigned) [Compound 398, 14-(2,6-Dimethylphenyl)-8-isobutyl-4-(5-isopropoxypyrimidin-2-yl)-18,18-dioxo-11-oxa-18λ^6-thia-3,15,17,24-tetrazatetracyclo[17.3.1.112,16.03,9]tetracosa-1(22),12,14,16(24),19(23),20-hexaen-2-one] | +++ (+++ is >60%)
Cc1cccc(C)c1-c1cc2nc(n1)NS(=O)(=O)c1cccc(c1)C(=O)N1[C@@H](c3ncc(OC(C)C)cn3)CCC[C@@H](CC(C)C)[C@H]1CO2 (single isomer, unassigned) [Compound 399, 14-(2,6-dimethylphenyl)-8-isobutyl-4-(5-isopropoxypyrimidin-2-yl)-18,18-dioxo-11-oxa-18λ^6-thia-3,15,17,24-tetrazatetracyclo[17.3.1.112,16.03,9]tetracosa-1(22),12,14,16(24),19(23),20-hexaen-2-one] | + (+ is <30+)
Cc1cccc(C)c1-c1cc2nc(n1)NS(=O)(=O)c1cccc(c1)C(=O)N1[C@@H](c3cncc(N(C)C4CCC4)n3)CCC[C@@H](CC(C)C)[C@H]1CO2 (single isomer, unassigned) [Compound 400, 4-[6-[Cyclobutyl(methyl)amino]pyrazin-2-yl]-14-(2,6-dimethylphenyl)-8-isobutyl-18,18-dioxo-11-oxa-18λ^6-thia-3,15,17,24-tetrazatetracyclo[17.3.1.112,16.03,9]tetracosa-1(22),12,14,16(24),19(23),20-hexaen-2-one] | +++ (+++ is >60%)
Cc1cccc(C)c1-c1cc2nc(n1)NS(=O)(=O)c1cccc(c1)C(=O)N1[C@@H](c3cncc(N(C)C4CCC4)n3)CCC[C@@H](CC(C)C)[C@H]1CO2 (single isomer, unassigned) [Compound 401, 4-[6-[cyclobutyl(methyl)amino]pyrazin-2-yl]-14-(2,6-dimethylphenyl)-8-isobutyl-18,18-dioxo-11-oxa-18λ^6-thia-3,15,17,24-tetrazatetracyclo[17.3.1.112,16.03,9]tetracosa-1(22),12,14,16(24),19(23),20-hexaen-2-one] | ++ (++ is 30-60%)
Cc1cccc(C)c1-c1cc2nc(n1)NS(=O)(=O)c1cccc(c1)C(=O)N1[C@@H](c3cncc(N(C)C4CCC4)n3)CCC[C@@H](CC(C)C)[C@H]1CO2 (single isomer, unassigned) [Compound 402, 4-[6-[Cyclobutyl(methyl)amino]pyrazin-2-yl]-14-(2,6-dimethylphenyl)-8-isobutyl-18,18-dioxo-11-oxa-18λ^6-thia-3,15,17,24-tetrazatetracyclo[17.3.1.112,16.03,9]tetracosa-1(22),12,14,16(24),19(23),20-hexaen-2-one] | +++ (+++ is >60%)
Cc1cccc(C)c1-c1cc2nc(n1)NS(=O)(=O)c1cccc(c1)C(=O)N1[C@@H](c3ncc(OC(C)C)cn3)CCC[C@@H](O2)[C@H]1CC(C)C (single isomer, unassigned) [Compound 404, 12-(2,6-dimethylphenyl)-21-isobutyl-20-(5-isopropoxypyrimidin-2-yl)-8,8-dioxo-15-oxa-8λ^6-thia-1,9,11,22-tetrazatetracyclo[14.4.1.13,7.110,14]tricosa-3,5,7(23),10(22),11,13-hexaen-2-one] | ++ (++ is 30-60%)
Cc1cccc(C)c1-c1cc2nc(n1)NS(=O)(=O)c1cccc(c1)C(=O)N1[C@@H](c3ncc(OC(C)C)cn3)CCC[C@@H](O2)[C@H]1CC(C)C (single isomer, unassigned) [Compound 405, 12-(2,6-Dimethylphenyl)-21-isobutyl-20-(5-isopropoxypyrimidin-2-yl)-8,8-dioxo-15-oxa-8λ^6-thia-1,9,11,22-tetrazatetracyclo[14.4.1.13,7.110,14]tricosa-3,5,7(23),10(22),11,13-hexaen-2-one] | +++ (+++ is >60%)
Cc1cccc(C)c1-c1cc2nc(n1)NS(=O)(=O)c1cccc(c1)C(=O)N1[C@@H](c3ncc(OC(C)C)cn3)CCC[C@@H](O2)[C@H]1CC(C)C (single isomer, unassigned) [Compound 406, 12-(2,6-Dimethylphenyl)-21-isobutyl-20-(5-isopropoxypyrimidin-2-yl)-8,8-dioxo-15-oxa-8λ^6-thia-1,9,11,22-tetrazatetracyclo[14.4.1.13,7.110,14]tricosa-3,5,7(23),10(22),11,13-hexaen-2-one] | +++ (+++ is >60%)
